Assay results reported in US10221163B2 (priority 2015, dated 2019).
Read-outs that look alike come from different tables or passages of the source.

Tests used:
VIM-1 = VIM-1 (Pseudomonas aeruginosa (strain ATCC 15692 / DSM 22644 / CIP 104116 / JCM 14847 / LMG 12228 / 1C / PRS 101 / PAO1), UniProt A0A0F7KYQ8); experiment: biochemical; details: CCF2-FA substrate, 30 pM enzyme, 2 hours at 25° C.
Summary of the method: (§1)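 Class B activity is measured in the presence of compound by fluorescence with CCF2-FA after a 2-hour incubation at 25° C. IC50 is taken from a 4-parameter fit of semi-logarithmic dose-response data.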

[1] = tested on: Serratia marcescens expressing IMP-1 (CL5741); format: cell-based; details: for Serratia marcescens MITC95: IMP-1 strain CL5741, with imipenem 1 μg/ml; for Serratia marcescens expressing IMP-1 (CL5741) MITC95: with imipenem 1 μg/ml
Summary of the method: (§2)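 Clinical strains grown overnight on blood agar at 35°C, colonies suspended in saline, diluted 1:100 into 1.1×CAMHB. Test compound titrated with imipenem at 1 μg/ml; incubated 22–24 h at 35°C, growth read by absorbance.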

[2] = tested on: Escherichia coli expressing NDM-1 (CLB30005, CLB30016); format: cell-based; details: with imipenem 1 μg/ml; for Escherichia coli MITC95: NDM-1 strain
Summary of the method: as §2

[3] = tested on: Klebsiella pneumoniae expressing VIM-1 (IHMA599644); format: cell-based; details: for Klebsiella pneumoniae MITC95: VIM-1 strain IHMA599644, with imipenem 1 μg/ml; for Klebsiella pneumoniae expressing VIM-1 (IHMA599644) MITC95: with imipenem 1 μg/ml
Summary of the method: as §2

[4] = tested on: Pseudomonas aeruginosa efflux− (MB9799), IMP-1; format: cell-based; details: C, D serine β-lactamase inhibitor closely related to relebactam; for P. aeruginosa expressing IMP-1, efflux − (MB9799) MITC95: concentration restoring susceptibility to imipenem at 2 μg/mL in the presence of a class A
Summary of the method: (§3)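 PAO1 pair, broth microdilution; fixed β-lactam (imipenem/ceftazidime) at ~CLSI breakpoint + fixed class A/C BLI for AmpC; serial MBLi titration; endpoint = MBLi conc. restoring susceptibility; MB9798:MB9799 ratio = efflux liability.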

[5] = tested on: Pseudomonas aeruginosa efflux+ (MB9798), IMP-1; format: cell-based; parameters: Concentration of metallo-β-lactamase inhibitor which restores susceptibility of efflux + (MB9798) strain to imipenem: unit not given here; details: C, D serine β-lactamase inhibitor closely related to relebactam; for P. aeruginosa expressing IMP-1, efflux + (MB9798) MITC95: concentration restoring susceptibility to imipenem at 2 μg/mL in the presence of a class A
Summary of the method: as §3

IMP-1 = IMP-1 (Serratia marcescens, UniProt P52699); experiment: biochemical; format: biochemical; details: fluorescence assay, CCF2-FA substrate, 2 pM enzyme, 2 hours at 25° C.; read-out: IMP-1 IC50
Chain of IMP-1 (P52699 whole entry, looked up, species assumed): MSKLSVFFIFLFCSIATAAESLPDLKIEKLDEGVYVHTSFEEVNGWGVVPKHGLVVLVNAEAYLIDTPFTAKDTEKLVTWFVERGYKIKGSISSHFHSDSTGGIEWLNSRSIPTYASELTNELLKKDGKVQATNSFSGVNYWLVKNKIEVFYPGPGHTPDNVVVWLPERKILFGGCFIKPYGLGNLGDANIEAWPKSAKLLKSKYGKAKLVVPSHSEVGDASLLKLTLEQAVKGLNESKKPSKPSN
Summary of the method: as §1

NDM-1 = NDM-1 (Klebsiella pneumoniae, UniProt C7C422); experiment: biochemical; format: biochemical; details: fluorescence assay, CCF2-FA substrate, 1 pM enzyme, 2 hours at 25° C.; read-out: NDM-1 IC50
Chain of NDM-1 (C7C422 whole entry, looked up, species assumed): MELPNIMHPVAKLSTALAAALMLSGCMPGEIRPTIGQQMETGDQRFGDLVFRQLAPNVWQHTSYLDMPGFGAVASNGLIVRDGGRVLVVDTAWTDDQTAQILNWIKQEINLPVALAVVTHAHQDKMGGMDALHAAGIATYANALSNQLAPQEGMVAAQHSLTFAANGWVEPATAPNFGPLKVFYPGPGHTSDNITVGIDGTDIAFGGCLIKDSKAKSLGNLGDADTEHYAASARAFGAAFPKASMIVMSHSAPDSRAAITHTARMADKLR
Summary of the method: as §1

[6] = tested on: Pseudomonas aeruginosa MB9798 vs MB9799
Summary of the method: as §3

[7] = ratio MITC95 PA_9798/MITC95 PA_9799
[8] = 95% inhibition of bacterial growth
[9] = fluorescence assay, read-out: VIM-1 IC50

SMILES | IC50 (VIM-1; VIM-1 IC50, fluorescence assay) [nM] | Serratia marcescens MITC95 ([1]; 95% inhibition of growth) [µM] | Escherichia coli MITC95 ([2]; 95% inhibition of growth) [µM] | Klebsiella pneumoniae MITC95 ([3]; 95% inhibition of growth) [µM] | P. aeruginosa expressing IMP-1, efflux − (MB9799) MITC95 [4] [µM] | P. aeruginosa expressing IMP-1, efflux + (MB9798) MITC95 [5] [µM] | IC50 (IMP-1) [nM] | IC50 (NDM-1) [nM] | Efflux ratio [6, 7] | Serratia marcescens expressing IMP-1 (CL5741) MITC95 [1, 8] [µM] | Escherichia coli expressing NDM-1 (CLB30016) MITC95 [2, 8] [µM] | Klebsiella pneumoniae expressing VIM-1 (IHMA599644) MITC95 [3, 8] [µM] | IC50 (VIM-1; [9]) [nM] | Serratia marcescens MITC95 [1, 8] [µM] | Escherichia coli MITC95 [2, 8] [µM] | Klebsiella pneumoniae MITC95 [3, 8] [µM] | Concentration of metallo-β-lactamase inhibitor which restores susceptibility of efflux − (MB9799) strain to imipenem ([4]; efflux− MB9799, imipenem at 2 μg/mL, in the presence of a class A) | Concentration of metallo-β-lactamase inhibitor which restores susceptibility of efflux + (MB9798) strain to imipenem ([5]; efflux+ MB9798, imipenem at 2 μg/mL, in the presence of a class A) | Efflux ratio ([6]; fold difference between efflux+ (MB9798) and efflux− (MB9799) strains, imipenem at 2 μg/mL)
NCCN1CC[C@H](NS(=O)(=O)c2ccc(-c3cccc4[nH]c(N)nc34)c(-c3nn[nH]n3)c2S(N)(=O)=O)C1 [Example 268, (S)-4-(2-amino-1H-benzo[d]imidazol-4-yl)-N1-(1-(2-aminoethyl)pyrrolidin-3-yl)-3-(2H-tetrazol-5-yl)benzene-1,2-disulfonamide] | 0.15 | 1.563 | 0.7813 | 1.563 | 0.7813 | 0.7813 | 1.1 | 0.0612 | 1.00 | – | – | – | – | – | – | – | – | – | –
C[C@@H](CN)NS(=O)(=O)c1ccc(-c2cccc3[nH]c(N)nc23)c(-c2nn[nH]n2)c1S(N)(=O)=O [Example 186] | 0.901 | – | – | – | 0.7813 | 1.563 | 4.09 | 0.366 | 2.00 | 1.563 | 0.7813 | 1.563 | – | – | – | – | – | – | –
CN(C)S(=O)(=O)c1ccc(-c2cccc3sc(N)nc23)c(-c2nn[nH]n2)c1S(N)(=O)=O [Example 151, 4-(2-aminobenzo[d]thiazol-4-yl)-N1,N1-dimethyl-3-(2H-tetrazol-5-yl)benzene-1,2-disulfonamide] | – | – | – | – | 3.125 | 50 | 2.43 | 5.94 | 16.00 | 6.25 | 12.5 | 50 | 9.22 | – | – | – | – | – | –
CN([C@H]1CCNC1)S(=O)(=O)c1ccc(-c2cccc3[nH]c(N)nc23)c(-c2nn[nH]n2)c1S(N)(=O)=O [Example 244, (S)-4-(2-amino-1H-benzo[d]imidazol-7-yl)-N1-methyl-N1-(pyrrolidin-3-yl)-3-(1H-tetrazol-5-yl)benzene-1,2-disulfonamide] | – | 1.563 | 0.7813 | 1.563 | 0.7813 | 1.563 | 6.58 | 1.3 | 2.00 | – | – | – | 6.75 | – | – | – | – | – | –
NCCN1CC[C@@H](NS(=O)(=O)c2ccc(-c3ccc(N)nc3)c(-c3nn[nH]n3)c2S(N)(=O)=O)C1 [Example 500, (R)—N1-(1-(2-aminoethyl)pyrrolidin-3-yl)-4-(6-aminopyridin-3-yl)-3-(2H-tetrazol-5-yl)benzene-1,2-disulfonamide] | – | – | – | – | – | – | 0.164 | 0.0347 | – | – | – | – | 0.071 | 1.563 | 1.563 | 3.125 | 1.563 | 1.563 | 1.00
Nc1ccc(-c2ccc(S(=O)(=O)NCCc3ncc[nH]3)c(S(N)(=O)=O)c2-c2nn[nH]n2)cn1 [Example 218, N^1-(2-(1H-imidazol-2-yl)ethyl)-4-(6-aminopyridin-3-yl)-3-(2H-tetrazol-5-yl)benzene-1,2-disulfonamide] | 0.549 | – | – | – | 1.563 | 25 | 0.694 | 0.786 | 15.99 | 0.7813 | 0.1953 | 3.125 | – | – | – | – | – | – | –
Nc1nc2c(-c3ccc(S(=O)(=O)N4CC[C@@H](N)C4)c(S(N)(=O)=O)c3-c3nnn[nH]3)cccc2s1 [Example 62, 3-(2-amino-1,3-benzothiazol-4-yl)-6-{[(3R)-3-aminopyrrolidin-1-yl]sulfonyl}-2-(1H-tetrazol-5-yl)benzenesulfonamide] | 1.63 | – | – | – | 1.563 | 1.563 | 1.28 | 0.843 | 1.00 | 1.563 | 3.125 | 3.125 | – | – | – | – | – | – | –
NS(=O)(=O)c1c(S(=O)(=O)N[C@@H]2CCNC2)ccc(-c2cccc3[nH]cnc23)c1-c1nn[nH]n1 [Example 193, 4-(1H-benzo[d]imidazol-4-yl)-N1-((R)-pyrrolidin-3-yl)-3-(2H-tetrazol-5-yl)benzene-1,2-disulfonamide] | – | – | – | – | 0.7813 | 0.7813 | 0.211 | 0.0392 | 1.00 | 1.563 | 1.563 | 2.344 | 0.113 | – | – | – | – | – | –
N#Cc1cccc(-c2ccc(S(=O)(=O)N[C@@H]3CCNC3)c(S(N)(=O)=O)c2-c2nnn[nH]2)c1N [Example 132, (R)-2′-amino-3′-cyano-N4-(pyrrolidin-3-yl)-2-(1H-tetrazol-5-yl)-[1,1′-biphenyl]-3,4-disulfonamide] | – | – | – | – | 0.7813 | 3.125 | 1.4 | 0.114 | 4.00 | 1.563 | 0.7813 | 1.563 | 0.124 | – | – | – | – | – | –
NS(=O)(=O)c1c(S(=O)(=O)N[C@@H]2CCNC2)ccc(-c2cccc3ncccc23)c1-c1nn[nH]n1 [Example 287, (R)-N1-(pyrrolidin-3-yl)-4-(quinolin-5-yl)-3-(2H-tetrazol-5-yl)benzene-1,2-disulfonamide] | – | 1.563 | 1.563 | 3.125 | 1.563 | 1.563 | 0.617 | 0.0422 | 1.00 | – | – | – | 0.165 | – | – | – | – | – | –
